{"source": "patent US20060128737A1", "about": "“Androgen receptor agonists” (KAKEN PHARMACEUTICAL CO., LTD., priority 2003, published 2006)", "key": {"[1]": {"target": "T1, rat androgen receptors (rat AR) (Rattus norvegicus, UniProt P15207)", "T1 construct": "from tissue; host or cells: prostate of orchiectomized 11-week-old male SD rats (cytosolic supernatant of homogenate)", "T1 sequence (P15207 1-902)": "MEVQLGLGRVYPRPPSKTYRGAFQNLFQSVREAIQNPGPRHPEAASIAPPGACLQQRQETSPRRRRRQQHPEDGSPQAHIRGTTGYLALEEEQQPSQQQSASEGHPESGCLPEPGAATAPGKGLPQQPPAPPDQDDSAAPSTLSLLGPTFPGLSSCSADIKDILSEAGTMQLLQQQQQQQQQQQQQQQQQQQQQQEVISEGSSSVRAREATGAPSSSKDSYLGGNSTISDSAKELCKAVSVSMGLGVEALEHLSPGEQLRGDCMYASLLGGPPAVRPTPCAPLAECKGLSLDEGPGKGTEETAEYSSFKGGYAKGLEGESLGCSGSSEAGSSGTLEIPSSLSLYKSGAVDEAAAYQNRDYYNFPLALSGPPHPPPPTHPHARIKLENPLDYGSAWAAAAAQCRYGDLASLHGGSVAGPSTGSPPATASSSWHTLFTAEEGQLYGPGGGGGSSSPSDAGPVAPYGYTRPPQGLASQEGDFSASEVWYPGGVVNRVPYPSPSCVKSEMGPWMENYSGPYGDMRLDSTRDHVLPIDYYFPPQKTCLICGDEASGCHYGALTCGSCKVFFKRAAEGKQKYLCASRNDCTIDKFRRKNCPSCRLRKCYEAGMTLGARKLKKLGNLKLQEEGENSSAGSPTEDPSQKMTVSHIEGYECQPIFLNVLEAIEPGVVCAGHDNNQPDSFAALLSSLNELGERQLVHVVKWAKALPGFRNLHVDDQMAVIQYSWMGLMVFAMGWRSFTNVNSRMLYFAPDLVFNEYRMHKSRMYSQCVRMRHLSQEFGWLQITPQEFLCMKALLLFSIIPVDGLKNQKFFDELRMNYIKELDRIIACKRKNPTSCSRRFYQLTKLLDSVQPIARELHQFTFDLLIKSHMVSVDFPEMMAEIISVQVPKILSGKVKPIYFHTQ", "test": "Test for competitive binding to rat androgen receptors (rat AR)", "conditions": "RBA=100×(IC50 of hydroxyflutamide)/(IC50 of compound); 3H-testosterone, rat prostate AR fraction", "description": "Preparation of a rat AR fraction: Prostates were harvested into ice-cooled ET buffer (10 mM Tris, 1 mM EDTA, 5 mM DTT, 10 mM sodium molybdate, pH 7.4) 3 days after orchiectomy in 11-week-old male SD rats. The prostate was finely cut, and ET buffer was added, whereafter the mixture was homogenized using a homogenizer. The homogenate was ultracentrifuged (100,000×g, 60 min, 4° C.), and the supernatant was used as a rat AR fraction (hereinafter referred to as ARF).\nBinding test: ^3H-testosterone (hereinafter referred to as ^3H-T) was diluted with ET buffer. Dihydrotestosterone (DHT) was prepared so as to have a final concentration of 1 μM which was 400 times the maximum concentration of ^3H-T (2.5 nM). The ^3H-T solution was added to a 1.5 ml tube containing DHT, no DHT, or various concentrations of a test compound. Further, 200 μg ARF was added to adjust the final volume to 100 μl. The mixture was incubated for 2 hours at 4° C., and then 300 μl of a 0.05% dextran T70-1.0% activated carbon solution was added. The mixture was further incubated for 15 minutes in ice to remove the free ^3H-T by adsorption. After centrifugation (4° C., 2,500 rpm, 5 min), 275 μl of the supernatant was harvested into a liquid scintillation vial, and 2 ml of Clear Sol was added. The mixture was stirred, allowed to stand, and measured for ^3H radioactivity with a liquid scintillation counter.\nCalculation of the relative binding inhibition rate: The binding inhibition rate (%) of the compound according to the present invention was calculated from the following equation, and the 50% inhibition concentration (IC50) was calculated by the probit analysis of the concentration-binding inhibition curve.\nThe relative binding inhibition rate (RBA: Relative Binding Affinity) was determined from the following equation (Endocrinology 138, 863-870, 1997): RBA=100×(IC50 of hydroxyflutamide)/(IC50 of a compound of the present invention)"}, "[2]": {"system": "orchiectomized (ORX) rats", "test": "Test Example 2: effect on prostate, levator ani muscle and femoral bone mineral density in ORX rats (subcutaneous)", "assay_type": "in vivo, rat", "conditions": "for Femoral bone mineral density / Weight of levator ani muscle / Weight of prostate: 5 days a week, 4 weeks", "description": "Testes were removed from 12-week-old male SD rats. Starting on the next day, the compound of Example 1 (3, 10, 30 mg/kg) or DHT (0.1, 1, 10 mg/kg) was subcutaneously administered once daily for four consecutive weeks on a 5-day-a-week basis. The Example compound and DHT were dissolved in dimethyl sulfoxide and diluted 10-fold with olive oil to prepare solutions with various concentrations for use in the test. In an ORX control group, dimethyl sulfoxide as diluted 10-fold with olive oil was used for the test. Rats which had been falsely operated on without orchiectomy were used as a sham control group. On the next day after final administration, the wet weights of the ventral prostate and levator ani muscle were measured and the right femoral bone mineral density was measured by DEXA (double energy X-ray absorption) to evaluate the in vivo efficacy of the compound of Example 1."}, "[3]": {"system": "orchiectomized (ORX) rats", "test": "Test Example 5: effect of oral administration on prostate, levator ani muscle and femoral bone mineral density in ORX rats", "assay_type": "in vivo, rat", "description": "Testes were removed from 12-week-old male SD rats. Starting on the next day, the compound of Example 1 (100 mg/10 ml/kg) was orally administered once daily for four consecutive weeks on a 5-day-a-week basis. As a positive control, testosterone propionate (TP) (10 mg/kg) was subcutaneously administered once daily on a continuous 5-day-a-week basis. The test compound was suspended in a 0.5% methyl cellulose solution used as a solvent whereas TP was dissolved in dimethyl sulfoxide and diluted 10-fold with olive oil for use in the test. In an ORX control group, dimethyl sulfoxide as diluted 10-fold with olive oil was used for the test. Rats which had been falsely operated on without orchiectomy were used as a sham control group. On the next day after final administration, the wet weights of the ventral prostate and levator ani muscle were measured and the right femoral bone mineral density was measured by DEXA (double energy X-ray absorption) to evaluate the in vivo efficacy of the compound of Example 1. The results are shown in Table 19 and in FIGS. 10 to 12."}, "[4]": {"system": "orchiectomized (ORX) rats", "test": "Test Example 3: effect on prostate, levator ani muscle and femoral bone mineral density in ORX rats (subcutaneous)", "assay_type": "in vivo, rat", "description": "(§1) Testes were removed from 12-week-old male SD rats. Starting on the next day, the compound of Example 12 or 65 (30 mg/kg) or DHT (0.1, 1, 10 mg/kg) was subcutaneously administered once daily for four consecutive weeks on a 5-day-a-week basis. The Example compounds and DHT were dissolved in dimethyl sulfoxide and diluted 10-fold with olive oil to prepare solutions with various concentrations for use in the test. In an ORX control group, dimethyl sulfoxide as diluted 10-fold with olive oil was used for the test. Rats which had been falsely operated on without orchiectomy were used as a sham control group. On the next day after final administration, the wet weights of the ventral prostate and levator ani muscle were measured and the right femoral bone mineral density was measured by DEXA (double energy X-ray absorption) to evaluate the in vivo efficacy of the compounds of Example 12 and 65."}, "[5]": {"system": "orchiectomized (ORX) rats", "test": "Test Example 4: effect on prostate, levator ani muscle and femoral bone mineral density in ORX rats (subcutaneous)", "assay_type": "in vivo, rat", "conditions": "for Prostate weight as % of the level of the sham control group: 30 mg/kg sc; for Femoral bone mineral density / Weight of levator ani muscle / Weight of prostate: 30 mg/kg sc once daily, 5 days a week, 4 weeks", "description": "as §1, with “Example 113” for “Example 12”, “or 114” for “or 65”, “DHT (10” for “DHT (0.1, 1, 10”, “test. […]” for “test. Rats which had been falsely operated on without orchiectomy were used as a sham control group.”, “and 114.” for “and 65.”"}, "[6]": {"conditions": "100 mg/kg PO once daily, 5 days a week, 4 weeks"}, "[7]": {"conditions": "30 mg/kg sc once daily, 5 days a week, 4 weeks"}}, "data": [{"smiles": "COCC(=O)NCC(C)(C)[C@H]1Nc2ccc([N+](=O)[O-])cc2C2C=CC[C@H]21", "note": "(relative stereo) [Example 1, (3aR*,4S*,9bS*)-2-methoxy-N-[2-methyl-2-(8-nitro-3a,4,5,9b-tetrahydro-3H-cyclopenta[c]quinolin-4-yl)propyl]-1-acetamide]", "values": [{"measurement": "RBA (Relative Binding Affinity)", "setting": "[1]", "result": 1076}, {"measurement": "Femoral bone mineral density", "setting": "[2]; 3 mg/kg sc once daily", "result": "116 ± 6", "unit": "mg/cm^2"}, {"measurement": "Weight of levator ani muscle", "setting": "[2]; 3 mg/kg sc once daily", "result": "56 ± 7", "unit": "mg/100 g body weight"}, {"measurement": "Weight of prostate", "setting": "[2]; 3 mg/kg sc once daily", "result": "41 ± 8", "unit": "mg/100 g body weight"}, {"measurement": "Femoral bone mineral density", "setting": "[2]; 10 mg/kg sc once daily", "result": "119 ± 3", "unit": "mg/cm^2"}, {"measurement": "Weight of levator ani muscle", "setting": "[2]; 10 mg/kg sc once daily", "result": "65 ± 6", "unit": "mg/100 g body weight"}, {"measurement": "Weight of prostate", "setting": "[2]; 10 mg/kg sc once daily", "result": "61 ± 10", "unit": "mg/100 g body weight"}, {"measurement": "Prostate weight as % of the level of the sham control group", "setting": "[2]; 30 mg/kg sc", "result": "about 80%"}, {"measurement": "Femoral bone mineral density", "setting": "[2]; 30 mg/kg sc once daily", "result": "122 ± 1", "unit": "mg/cm^2"}, {"measurement": "Weight of levator ani muscle", "setting": "[2]; 30 mg/kg sc once daily", "result": "71 ± 4", "unit": "mg/100 g body weight"}, {"measurement": "Weight of prostate", "setting": "[2]; 30 mg/kg sc once daily", "result": "82 ± 10", "unit": "mg/100 g body weight"}, {"measurement": "Femoral bone mineral density", "setting": "[3]; [6]", "result": "135 ± 6", "unit": "mg/cm^2"}, {"measurement": "Weight of levator ani muscle", "setting": "[3]; [6]", "result": "87 ± 5", "unit": "mg/100 g body weight"}, {"measurement": "Weight of prostate", "setting": "[3]; [6]", "result": "117 ± 23", "unit": "mg/100 g body weight"}, {"measurement": "Prostate weight as % of the level of the sham control group", "setting": "[3]; 100 mg/kg orally", "result": "about 75%"}]}, {"smiles": "CC(C)(CNC(=O)c1ccc(Br)cc1)[C@H]1Nc2ccc([N+](=O)[O-])cc2C2OCC[C@H]21", "note": "(relative stereo) [Example 12, (3aS*,4S*,9bS*)-4-bromo-N-[2-methyl-2-(8-nitro-2,3,3a,4,5,9b-hexahydro-furo[3,2-c]quinolin-4-yl)propyl]benzamide]", "values": [{"measurement": "RBA (Relative Binding Affinity)", "setting": "[1]", "result": 94}, {"measurement": "Prostate weight as % of the level of the sham control group", "setting": "[4]; 30 mg/kg sc", "result": "about 35%"}, {"measurement": "Femoral bone mineral density", "setting": "[4]; [7]", "result": "122 ± 5", "unit": "mg/cm^2"}, {"measurement": "Weight of levator ani muscle", "setting": "[4]; [7]", "result": "54 ± 5", "unit": "mg/100 g body weight"}, {"measurement": "Weight of prostate", "setting": "[4]; [7]", "result": "36 ± 6", "unit": "mg/100 g body weight"}]}, {"smiles": "CC(C)(CNC(=O)c1ccc(OC(F)(F)F)cc1)[C@H]1Nc2ccc(C#N)cc2[C@H]2OCC[C@H]21", "note": "(relative stereo) [Example 113, (3aS*,4S*,9bS*)-N-[2-(8-cyano-2,3,3a,4,5,9b-hexahydro-furo[3,2-c]quinolin-4-yl)-2-methyl-propyl]-4-trifluoromethoxybenzamide]", "values": [{"measurement": "RBA (Relative Binding Affinity)", "setting": "[1]", "result": 58}, {"measurement": "Prostate weight as % of the level of the sham control group", "setting": "[5]", "result": "about 40%"}, {"measurement": "Femoral bone mineral density", "setting": "[5]", "result": "148 ± 3", "unit": "mg/cm^2"}, {"measurement": "Weight of levator ani muscle", "setting": "[5]", "result": "65 ± 6", "unit": "mg/100 g body weight"}, {"measurement": "Weight of prostate", "setting": "[5]", "result": "59 ± 16", "unit": "mg/100 g body weight"}]}, {"smiles": "CCOc1ccc(C(=O)NCC(C)(C)[C@H]2Nc3ccc(C#N)cc3[C@H]3OCC[C@H]32)cc1", "note": "(relative stereo) [Example 114, (3aS*,4S*,9bS*)-N-[2-(8-cyano-2,3,3a,4,5,9b-hexahydro-furo[3,2-c]quinolin-4-yl)-2-methyl-propyl]-4-ethoxybenzamide]", "values": [{"measurement": "RBA (Relative Binding Affinity)", "setting": "[1]", "result": 55}, {"measurement": "Prostate weight as % of the level of the sham control group", "setting": "[5]", "result": "about 60%"}, {"measurement": "Femoral bone mineral density", "setting": "[5]", "result": "150 ± 8", "unit": "mg/cm^2"}, {"measurement": "Weight of levator ani muscle", "setting": "[5]", "result": "66 ± 11", "unit": "mg/100 g body weight"}, {"measurement": "Weight of prostate", "setting": "[5]", "result": "86 ± 17", "unit": "mg/100 g body weight"}]}, {"smiles": "CCOc1ccc(C(=O)NCC(C)(C)[C@H]2Nc3ccc([N+](=O)[O-])cc3C3OCC[C@H]32)cc1", "note": "(some centres unmarked) [Example 20]", "values": [{"measurement": "RBA (Relative Binding Affinity)", "setting": "[1]", "result": 161}]}, {"smiles": "CC(C)(O)C(=O)Nc1ccc([N+](=O)[O-])c(C(F)(F)F)c1", "note": "[Hydroxyflutamide, hydroxyflutamide, reference compound]", "values": [{"measurement": "RBA (Relative Binding Affinity)", "setting": "[1]", "result": 100}]}]}
